Reference: patent US9750760B2, “Uridine diphosphate derivatives, prodrugs, compositions and methods for treating neurodegenerative disorders” (Tufts University, priority 2012, dated 2017)
pEC50: −log10 of the molar value.

Tests used:
[1] = molecular target: T1, P2Y6 receptor (Homo sapiens, UniProt Q15077); assay: Activation of P2Y6 receptor: receptor induced Ca2+ changes with fluo-4 in 1321N1 astrocytoma cells; type: cell-based
T1 construct: expressed in transfected cells; host or cells: 1321N1 human astrocytoma cell line
T1 sequence (Q15077 whole entry): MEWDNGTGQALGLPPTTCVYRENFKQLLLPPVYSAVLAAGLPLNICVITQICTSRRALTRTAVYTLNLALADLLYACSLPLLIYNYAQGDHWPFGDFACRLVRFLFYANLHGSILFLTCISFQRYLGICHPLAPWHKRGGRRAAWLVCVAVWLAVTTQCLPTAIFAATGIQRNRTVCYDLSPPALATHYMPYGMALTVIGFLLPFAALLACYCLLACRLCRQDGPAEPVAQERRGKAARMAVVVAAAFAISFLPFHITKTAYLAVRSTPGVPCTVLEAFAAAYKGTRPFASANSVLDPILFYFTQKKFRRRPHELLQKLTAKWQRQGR
Procedure: Synthetic ligands were tested for activation of P2Y6 receptor by measuring receptor induced Ca^2+ changes with the fluorescent Ca^2+ indicator fluo-4. 1321N1 human astrocytoma cell lines either expressing P2Y2, P2Y4 or P2Y6 receptors were plated into 24-well plates. Two days after plating, fluorometric measurements were made and responses of cells to a serial dilution of ligands were determined P2Y6 receptor-mediated Ca^2+ fluorescent change was determined by normalized accumulation of fluorescent change of 3 timepoints after ligand administration subtracted by value from ACSF control. Changes in fluorescent intensity were plotted corresponding to ligand concention in GraphPad. Dose-response curve and EC50 for each ligand was estimated using nonlinear curve fit and Sigmoidal dose-response analysis. […] The sodium salt of compound 5 was only effective at elevating Ca^2+ levels when applied to cells expressing P2Y6 receptors and not effective in P2Y2, or P2Y4 receptor expressing cells. The ability of the sodium salt of compound 5 to elevate Ca^2+ signals in P2Y6 expressing cells was attenuated by addition of the P2Y6 receptor antagonist MRS2578.
(§1) Synthetic ligands were tested for activation of P2Y6 receptor by measuring receptor induced Ca^2+ changes with the fluorescent Ca^2+ indicator fluo-4, and results are shown in FIG. 10(A)-(K). 1321N1 human astrocytoma cell lines either expressing P2Y2, P2Y4 or P2Y6 receptors were plated into 24-well plates. Two days after plating, fluorometric measurements were made and responses of cells to a serial dilution of ligands were determined P2Y6 receptor-mediated Ca^2+ fluorescent change was determined by normalized accumulation of fluorescent change of 3 timepoints after ligand administration subtracted by value from ACSF control. Changes in fluorescent intensity were plotted corresponding to ligand concentration in GraphPad. Dose-response curve and EC50 for each ligand was estimated using nonlinear curve fit and Sigmoidal dose-response analysis. […]

[2] = molecular target: T2, P2Y2 receptor (Homo sapiens, UniProt P41231); assay: Ca2+ mobilization (fluo-4) in 1321N1 astrocytoma cells expressing P2Y2 receptor; type: cell-based; details: sodium salt; 1321N1 cells expressing P2Y2
T2 construct: expressed in transfected cells; host or cells: 1321N1 human astrocytoma cell line
T2 sequence (P41231 whole entry): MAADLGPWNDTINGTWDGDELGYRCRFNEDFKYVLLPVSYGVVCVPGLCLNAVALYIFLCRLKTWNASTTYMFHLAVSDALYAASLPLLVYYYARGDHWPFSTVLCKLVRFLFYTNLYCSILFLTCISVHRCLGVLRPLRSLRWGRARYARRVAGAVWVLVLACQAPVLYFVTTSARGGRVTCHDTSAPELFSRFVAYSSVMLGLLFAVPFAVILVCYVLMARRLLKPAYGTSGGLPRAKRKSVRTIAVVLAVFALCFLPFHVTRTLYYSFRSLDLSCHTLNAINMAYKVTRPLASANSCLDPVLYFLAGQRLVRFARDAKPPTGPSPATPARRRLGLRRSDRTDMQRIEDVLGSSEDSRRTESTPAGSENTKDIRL
Procedure: as §1, with “fluo-4.” for “fluo-4, and results are shown in FIG. 10(A)-(K).”, “concention” for “concentration”
(§2) Synthetic ligands were tested for activation of P2Y6 receptor by measuring receptor induced Ca^2+ changes with the fluorescent Ca^2+ indicator fluo-4, and results are shown in FIG. 10(A)-(K). […] Two days after plating, fluorometric measurements were made and responses of cells to a serial dilution of ligands were determined P2Y6 receptor-mediated Ca^2+ fluorescent change was determined by normalized accumulation of fluorescent change of 3 timepoints after ligand administration subtracted by value from ACSF control. […]

[3] = molecular target: T3, P2Y4 receptor (Homo sapiens, UniProt P51582); assay: Ca2+ mobilization (fluo-4) in 1321N1 astrocytoma cells expressing P2Y4 receptor; type: cell-based; details: sodium salt; 1321N1 cells expressing P2Y4
T3 construct: expressed in transfected cells; host or cells: 1321N1 human astrocytoma cell line
T3 sequence (P51582 whole entry): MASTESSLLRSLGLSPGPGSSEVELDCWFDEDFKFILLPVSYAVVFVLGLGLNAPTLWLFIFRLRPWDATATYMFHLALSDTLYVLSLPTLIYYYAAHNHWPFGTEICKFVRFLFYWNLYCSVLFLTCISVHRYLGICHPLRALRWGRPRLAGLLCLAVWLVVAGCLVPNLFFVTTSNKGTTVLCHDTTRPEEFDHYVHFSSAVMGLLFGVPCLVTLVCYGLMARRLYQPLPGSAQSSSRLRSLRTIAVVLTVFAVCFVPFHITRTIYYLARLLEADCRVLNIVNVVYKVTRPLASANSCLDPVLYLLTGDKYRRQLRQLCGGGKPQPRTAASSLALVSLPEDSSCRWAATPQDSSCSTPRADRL
Procedure: as §1, with “fluo-4.” for “fluo-4, and results are shown in FIG. 10(A)-(K).”, “concention” for “concentration”
as §2

[4] = system: PSAPP mice; assay: Postmortem immunohistochemistry of plaque load in cortex and hippocampus; type: in vivo, mouse
Text: (§3) Heterozygous mutant (K670N/M671L) APP (50% C57B6, 50% SJL) transgenic mice were crossed with heterozygous mutant (A246E) PS-1 (50% C57B6, 50% SJL) transgenic mice to generate heterozygous PSAPP transgenic mice (also referred to as PS-1/APP or PSAPP+/+ mice), which refers to animals heterozygous for the PS-1 A246E transgene and the APP K670N/M671L transgene. Non-transgenic control animals were littermates (also referred to as PSAPP_−/− mice) generated in the breeding for PSAPP transgenic animals. Mouse genotype was determined by Polymerase Chain Reaction (PCR). Both male and female mice of 6-7 months old were used for the experiments below. All animal experiments were performed in accordance with the Tufts Animal Care and Use Committee and with national regulations and policies.
Mice were perfused transcardially with 4% paraformaldehyde and 40 μm Coronal sections were collected. Sections were sequentially incubated in 0.3% H2O2 for 10 minutes, blocking solution for 2 hrs, blocking solution containing the primary antibody (rabbit anti-beta1-42; rabbit anti-beta1-40, from Chemicon International and rat anti-CD45) for 48 hours at 4° C., and blocking solution containing biotinylated antibody or fluorescently-labeled antibody for 2 hours at room temperature. Sections were visualized in a bright field microscope or a confocal microscope, and the optical density was obtained using MetaMorph software.
After repeated imaging, brains were fixed and subjected to postmortem immunohistochemistry with amyloid beta specific antibodies β1-40 and β1-42 to evaluate the plaque load (area occupied by immunostaining of plaque) in cortex and hippocampus.
PSB0474 was systemically administered to PSAPP mice via intraperitoneal injection for 2, 4 and 6 consecutive days. In one group, prior to evaluation and following to administration for 6 consecutive days, treatment was suspended for two weeks (6+2 weeks group). Brains were then fixed and plaque load was evaluated by immunostaining with the amyloid beta specific antibodies: β1-40 and β1-42. Representative images of plaque load in cortex and hippocampus from animals that received injections of PSB0474 according to the foregoing injection schedules are shown in FIG. 5(A)-(D). […] Whereas, when administration of PSB0474 was stopped for 2 weeks following six consecutive days of treatment (denoted as the 6+2 weeks group), β1-40 staining rebounded; although to a level lower than observed in mice treated with saline as a vehicle control. FIGS. 6A and 6B depict the reduction in plaque load (%) the cortex and hippocampus, respectively, in PSAPP mice after treatment with 3-phenacyl-UDP for 2, 4, or 6 consecutive days, as assayed by staining with the β1-40 antibody. FIGS. 6C-6F depict data obtained following administration of different dosages of PSB0474.
To generate these graphs showing plaque load, mice were euthanized, brain sections cut and antibodies directed against Aβ 42 were used to disclose Aβ plaques. Images were acquired digitally and an algorithm was applied to threshold the image so that plaques were isolated from the background. The algorithm then calculated the percent area of the field of view occupied by the plaques.

[5] = system: PSAPP mice; assay: Contextual fear conditioning test (freezing behavior); type: in vivo, mouse
Procedure: On day one, animals were trained in a fear conditioning apparatus for a total of 7 minutes with a two-pairing paradigm of cue and mild foot shock (a 30-s acoustic-conditioned stimulus, 80 dB; a 2-s shock stimulus, 0.5 mA). To evaluate contextual fear learning, the animals were returned to the training context 24 hours post-training, and freezing behavior was scored for 5 minutes. Freezing behavior was monitored by MotorMonitor (Hamilton Kinder) and scored every 5 seconds.
In this study, the fear conditioning associative learning paradigm was used as a rapid cognition assay for PSAPP mice. This study allowed us to probe cognitive function with a single training day followed in 24 hours by tests for contextual and cued fear learning. Contextual fear learning is dependent upon a brain area that has been implicated as a locus for cognitive decline in AD: the hippocampus. Two pairings of CS-US for fear conditioning were followed 24 hours later by testing for contextual and cued fear learning. Previous studies have reported that PSAPP animals appear to have a selective hippocampus-dependent impairment in associative learning following two pairings of conditioned stimuli for fear conditioning.
This represents a decrease in the cognitive impairment observed in the untreated mice.

[6] = system: PSAPP mice; assay: Plasma cytokine levels in PSAPP mice; type: in vivo, mouse
Procedure: (§4) Inflammatory cytokines were assessed in mouse plasma of both wild type and PS1/APP mice (Alzheimer's mouse model) and the impact of intraperitoneal delivery of compound 5 on circulating cytokines was assessed. Seven daily intraperitoneal injections of 1 ug/kg of compound 5 were delivered to mice. 24 hours following the final injection, plasma was collected. Wildtype, age matched littermates and PSAPP mice (>6 months of age) were treated either with vehicle (phosphate buffered saline) or vehicle containing compound.

[7] = system: wildtype mice; assay: Plasma cytokine levels in wildtype mice; type: in vivo, mouse; details: wildtype animals, 1 ug/kg i.p. daily x7
Procedure: as §4

[8] = system: PSAPP mice; assay: Two-photon in vivo imaging of methoxyX04-labeled amyloid plaques in barrel cortex; parameters: species or system mouse; details: vs ACSF
Text: as §3
In this study, PSAPP mice were anesthetized using isoflurane and a thin-skull preparation was used to minimize the surface damage. Amyloid plaques were visualized with methoxyX04 labeling and blood plasma was labeled with Rhodamine dextran to facilitate re-localization of the same imaging area. Stack images were obtained using a two-photon system (Prairie Technologies) with excitation at 850 nm. The emission was detected by external photomultiplier tubes (525/70; DLCP 575; 607/45 nm).
Animals were anesthetized and immobilized in a stereotaxic frame. […]

[9] = system: PSAPP mice; assay: Hippocampal long-term potentiation (LTP) recording, CA1, high-frequency stimulation; type: in vivo, mouse; details: acute treatment
Procedure: Hippocampal slices (350 μm thick) were prepared from 6-month-old PSAPP mice. Baseline responses were obtained every 10 seconds and Input-output (I/O) curves, paired-pulse modification and LTP were successively measured. The stimulation intensity was set to a level that gives a value of 30% of the maximum obtained. LTP were induced by high frequency stimulation (HFS, 100 pulses at 100 Hz, four times) or by theta-burst stimulation (TBS, 10 bursts at 5 Hz, repeated 10 times in 15 s intervals).
Accumulated evidence has shown that amyloid peptides naturally secreted or isolated from Alzheimer's brains impair synaptic plasticity, especially hippocampal long-term potentiation (Walsh et al., 2002). Therefore, we further performed LTP recordings in PASPP mice and investigated whether P2Y6 receptor-mediated plaque clearance affects synaptic plasticity. […] First, it was observed that LTP at the schaffer collateral synapse within the CA1 region was depressed in PSAPP mice, as compared with littermates (FIG. 8(A)).

[10] = β1-42 antibody, i.p. daily 7 days, vs vehicle

In the case of `O=c1ccn([C@@H]2O[C@H](COP(=O)(O)OP(=O)(O)O)C(O)[C@@H]2O)c(=O)n1Cc1noc2ccccc12` (stereo partly drawn) [compound 5], the “elevating Ca2+ levels in cells expressing P2Y6 receptors” value ([1]; sodium salt, 1321N1 cells expressing P2Y6) was “effective”, the pEC50 ([1]; sodium salt, Ca2+ fluorescent change, 1321N1 cells expressing P2Y6 receptor) was 7.92 and the “elevating Ca2+ levels in P2Y2 receptor expressing cells” value [2] was “not effective”. The “elevating Ca2+ levels in P2Y4 receptor expressing cells” value [3] was “not effective”, the “Aβ plaque load (%) in cortex” value [4, 10] was “substantial decrease” and the “Aβ plaque load (%) in hippocampus” value [4, 10] was “substantial decrease”. The “freezing behavior (freezing %), contextual fear conditioning” value ([5]; i.p. daily for 7 consecutive days, vs vehicle control) was “significantly improved”, the “plasma IL-2 level” value ([6]; 1 ug/kg i.p. daily x7) was “reduced” and the “plasma IL-7 level” value ([6]; 1 ug/kg i.p. daily x7) was “reduced”. For the same molecule, the “plasma IL-9 level” value ([6]; 1 ug/kg i.p. daily x7) was “reduced”, the “plasma IL-10 level” value ([6]; 1 ug/kg i.p. daily x7) was “reduced” and the “plasma IL-15 level” value ([6]; 1 ug/kg i.p. daily x7) was “reduced”. The “plasma MIG level” value ([6]; 1 ug/kg i.p. daily x7) was “reduced”, the “plasma MIP1α level” value ([6]; 1 ug/kg i.p. daily x7) was “reduced” and the “plasma IL-1β level” value ([6]; 1 ug/kg i.p. daily x7, 24 hours after final injection) was “reduced”. The “plasma IL-2 level” value [7] was “reduced” and the “plasma IL-10 level” value [7] was “reduced”.

With `S=C=Nc1cccc(NC(=S)NCCCCNC(=S)Nc2cccc(N=C=S)c2)c1` [MRS2578, reference compound] the “effect of antagonist on Ca2+ signals elevated by sodium salt of compound 5” value ([1]; P2Y6 expressing cells, antagonist added) was “attenuated”.

For `O=C(Cn1c(=O)ccn(C2OC(COP(=O)(O)OP(=O)(O)O)C(O)C2O)c1=O)c1ccccc1` (stereo not drawn) [PSB0474, 3-phenacyl-UDP], the β1-40 staining ([4]; 6 consecutive days then stopped for 2 weeks, level still lower than saline vehicle) was “rebounded”, the “effects on the efficacy endpoint (plaque load)” value ([4]; higher dose of 1 mg/kg, one week daily) was “smaller effects” and the “immunoreactivity of β1-40 in cortex and hippocampus” value ([4]; i.p. for 4 consecutive days) was “significantly decreased”. The “immunoreactivity of β1-40 in cortex and hippocampus” value ([4]; i.p. for 6 consecutive days) was “significantly decreased” and the “memory deficit (freezing time), contextual fear conditioning” value ([5]; one week treatment with 1 ug/kg, vs vehicle) was “rescued the memory deficit”.

In the case of `O=c1ccn([C@@H]2O[C@H](COP(=O)(O)OP(=O)(O)O)[C@@H](O)[C@H]2O)c(=O)[nH]1` [UDP, uridine diphosphate], the “plaque load, day 4/day 1 ratio” value ([8]; FIG. 2D) was “reduces”, the “number of plaques, day 4/day 1 ratio” value ([8]; FIG. 2E) was “reduces” and the “LTP (fEPSP %) at schaffer collateral synapse, CA1” value ([9]; vs ACSF) was “significantly increased”. The “last 15 min potentiation, field excitatory postsynaptic potential (fEPSP)” value ([9]; comparable to littermates) was “significant increase”.
